Reference: PMC12396409, “Screening and hit evaluation of a microbial metabolite library against the pathogenic Plasmodium falciparum and Toxoplasma gondii parasites” (International Journal for Parasitology: Drugs and Drug …, 2025)
Counter-ions that a name gives are not always drawn. Like-named read-outs stand apart in the source and are kept apart here.

Assays:
[1] = test system: P. falciparum 3D7 parasites; test: P. falciparum growth inhibition assay, 2-cycle (120 h treatment), delayed-death screen and dose-response; assay type: cell-based, Plasmodium falciparum; details: for activity at 2 µg/mL: Plasmodium falciparum
[2] = test system: T. gondii RH strain (RH-Tub-eYFP) tachyzoites; test: microbe, parasite or virus in culture; assay type: cell-based, Toxoplasma gondii; details: 72 h; for percent parasite growth at 2 µg/mL: Toxoplasma gondii
[3] = test system: P. falciparum 3D7 parasites; test: P. falciparum growth inhibition assay, 1-cycle (72 h treatment), SYBR DNA staining (library screen at 2 μg/mL and dose-response); assay type: cell-based, Plasmodium falciparum; details: for activity at 2 µg/mL: Plasmodium falciparum
[4] = library screen at 2 μg/mL, % growth, replicate 1, read-out: Tg_72h_%Growth_Rep1
[5] = library screen at 2 μg/mL, % growth, replicate 2, read-out: Tg_72h_%Growth_Rep2

CCCCCC(=O)NC1CCOC1=O (stereo not drawn) [BIA-H1495]
Pf_120h_%Growth_Rep1 ([1]; P. falciparum 3D7, 120 h, library screen at 2 μg/mL, % growth, replicate 1): 97.98% | Pf_120h_%Growth_Rep2 ([1]; P. falciparum 3D7, 120 h, library screen at 2 μg/mL, % growth, replicate 2): 95.38% | Tg_72h_%Growth_Rep1 ([2]; T. gondii RH, library screen at 2 μg/mL, % growth, replicate 1): 133.00% | Tg_72h_%Growth_Rep2 ([2]; T. gondii RH, library screen at 2 μg/mL, % growth, replicate 2): 97.80% | Pf_72h_%Growth_Rep1 ([3]; P. falciparum 3D7, 72 h, library screen at 2 μg/mL, % growth, replicate 1): 85.11% | Pf_72h_%Growth_Rep2 ([3]; P. falciparum 3D7, 72 h, library screen at 2 μg/mL, % growth, replicate 2): 87.66%

CC1=C[C@@H]2/C=C(\C)CC[C@H](O)[C@H](O)/C=C/C(=O)[C@]23C(=O)N[C@@H](CC(C)C)[C@@H]3[C@@H]1C [Aspochalasin D]
activity at 2 µg/mL ([1]; 3D7, 120 h, library screen at 2 μg/mL, 120 h, % growth, replicate 1, read-out: Pf_120h_%Growth_Rep1): 74.4% | activity at 2 µg/mL ([1]; 3D7, 120 h, library screen at 2 μg/mL, 120 h, % growth, replicate 2, read-out: Pf_120h_%Growth_Rep2): 80.7% | percent parasite growth at 2 µg/mL [2, 4]: 5.85% | percent parasite growth at 2 µg/mL [2, 5]: 2.85% | activity at 2 µg/mL ([3]; 3D7, 72 h, library screen at 2 μg/mL, 72 h, % growth, replicate 1, read-out: Pf_72h_%Growth_Rep1): 71.8% | activity at 2 µg/mL ([3]; 3D7, 72 h, library screen at 2 μg/mL, 72 h, % growth, replicate 2, read-out: Pf_72h_%Growth_Rep2): 78.2%

CC[C@H](C)[C@H]1O[C@]2(C=C[C@@H]1C)C[C@@H]1C[C@@H](C/C=C(\C)[C@@H](O[C@H]3C[C@H](OC)[C@@H](O[C@H]4C[C@H](OC)[C@H](NC(C)=O)[C@H](C)O4)[C@H](C)O3)[C@@H](C)/C=C/C=C3\CO[C@@H]4[C@H](O)C(C)=C[C@@H](C(=O)O1)[C@]34O)O2 [Eprinomectin B1a, reference compound]
3) Fold change (72 h/120 h) [1]: 2.2 | 2) Growth (%) at 120 h ([1]; P. falciparum, 2 μg/mL, 120 h): 19.45% | Pf_120h_%Growth_Rep1 ([1]; library screen at 2 μg/mL, 120 h, % growth, replicate 1): 26.03% | Pf_120h_%Growth_Rep2 ([1]; library screen at 2 μg/mL, 120 h, % growth, replicate 2): 12.86% | Tg_72h_%Growth_Rep1 ([2]; library screen at 2 μg/mL, % growth, replicate 1): 139.55% | Tg_72h_%Growth_Rep2 ([2]; library screen at 2 μg/mL, % growth, replicate 2): 101.56% | 1) Growth (%) at 72 h ([3]; P. falciparum, 2 μg/mL, 72 h): 42.60% | Pf_72h_%Growth_Rep1 ([3]; library screen at 2 μg/mL, 72 h, % growth, replicate 1): 53.90% | Pf_72h_%Growth_Rep2 ([3]; library screen at 2 μg/mL, 72 h, % growth, replicate 2): 31.29%

CN[C@H](CC(C)C)C(=O)N[C@H]1C(=O)N[C@@H](CC(N)=O)C(=O)N[C@H]2C(=O)N[C@H]3C(=O)N[C@H](C(=O)N[C@H](C(=O)O)c4cc(O)cc(O)c4-c4cc3ccc4O)[C@H](O)c3ccc(c(Cl)c3)Oc3cc2cc(c3O[C@@H]2O[C@H](CO)[C@@H](O)[C@H](O)[C@H]2O[C@H]2C[C@](C)(N)[C@H](O)[C@H](C)O2)Oc2ccc(cc2Cl)[C@H]1O [Vancomycin hydrochloride]
activity at 2 µg/mL ([1]; 3D7, 120 h, read-out: Pf_120h_%Growth_Rep1): 110% | activity at 2 µg/mL ([1]; 3D7, 120 h, read-out: Pf_120h_%Growth_Rep2): 98.5% | percent parasite growth at 2 µg/mL ([2]; read-out: Tg_72h_%Growth_Rep1): 108% | percent parasite growth at 2 µg/mL ([2]; read-out: Tg_72h_%Growth_Rep2): 80.9% | activity at 2 µg/mL ([3]; 3D7, 72 h, read-out: Pf_72h_%Growth_Rep1): 88% | activity at 2 µg/mL ([3]; 3D7, 72 h, read-out: Pf_72h_%Growth_Rep2): 120%

CC[C@H](C)C(=O)O[C@H]1CCC=C2C=C[C@H](C)[C@H](CC[C@@H]3C[C@@H](O)CC(=O)O3)[C@H]21 [BIA-M1209]
Pf_120h_%Growth_Rep1 ([1]; P. falciparum 3D7, 120 h, parasite screen at 2 μg/mL, % growth, replicate 1): 88.69% | Pf_120h_%Growth_Rep2 ([1]; P. falciparum 3D7, 120 h, parasite screen at 2 μg/mL, % growth, replicate 2): 112.58% | Tg_72h_%Growth_Rep1 ([2]; T. gondii, parasite screen at 2 μg/mL, % growth, replicate 1): 113.16% | Tg_72h_%Growth_Rep2 ([2]; T. gondii, parasite screen at 2 μg/mL, % growth, replicate 2): 83.90% | Pf_72h_%Growth_Rep1 ([3]; P. falciparum 3D7, 72 h, parasite screen at 2 μg/mL, % growth, replicate 1): 86.39% | Pf_72h_%Growth_Rep2 ([3]; P. falciparum 3D7, 72 h, parasite screen at 2 μg/mL, % growth, replicate 2): 121.47%

C[C@H]1CCCC(=O)CCC/C=C/c2cc(O)cc(O)c2C(=O)O1 [Zearalenone]
activity at 2 µg/mL ([1]; 3D7, P. falciparum, 120 h, screen at 2 μg/mL, replicate 1, read-out: Pf_120h_%Growth_Rep1): 88.9% | activity at 2 µg/mL ([1]; 3D7, P. falciparum, 120 h, screen at 2 μg/mL, replicate 2, read-out: Pf_120h_%Growth_Rep2): 64.3% | percent parasite growth at 2 µg/mL ([2]; T. gondii, screen at 2 μg/mL, replicate 1, read-out: Tg_72h_%Growth_Rep1): 104% | percent parasite growth at 2 µg/mL ([2]; T. gondii, screen at 2 μg/mL, replicate 2, read-out: Tg_72h_%Growth_Rep2): 74% | activity at 2 µg/mL ([3]; 3D7, P. falciparum, 72 h, screen at 2 μg/mL, replicate 1, read-out: Pf_72h_%Growth_Rep1): 89.4% | activity at 2 µg/mL ([3]; 3D7, P. falciparum, 72 h, screen at 2 μg/mL, replicate 2, read-out: Pf_72h_%Growth_Rep2): 99.7%

CC1(C)CC[C@]2(C(=O)O)CC[C@]3(C)C(=CC[C@@H]4[C@@]5(C)C[C@@H](O)[C@H](O)[C@@](C)(CO)[C@@H]5CC[C@]43C)[C@@H]2C1 [Arjunolic acid]
activity at 2 µg/mL ([1]; 3D7, library screen at 2 μg/mL, 120 h, % growth, replicate 1, read-out: Pf_120h_%Growth_Rep1): 72.4% | activity at 2 µg/mL ([1]; 3D7, library screen at 2 μg/mL, 120 h, % growth, replicate 2, read-out: Pf_120h_%Growth_Rep2): 76.3% | percent parasite growth at 2 µg/mL [2, 4]: 85.6% | percent parasite growth at 2 µg/mL [2, 5]: 73.6% | activity at 2 µg/mL ([3]; 3D7, library screen at 2 μg/mL, 72 h, % growth, replicate 1, read-out: Pf_72h_%Growth_Rep1): 75.9% | activity at 2 µg/mL ([3]; 3D7, library screen at 2 μg/mL, 72 h, % growth, replicate 2, read-out: Pf_72h_%Growth_Rep2): 83%

COc1cc(C[C@H]2C(=O)OC[C@@H]2Cc2ccc3c(c2)OCO3)ccc1O [Pluviatolide]
Pf_120h_%Growth_Rep1 ([1]; P. falciparum, 120 h, parasite screen 2 μg/mL, % growth, replicate 1): 90.86% | Pf_120h_%Growth_Rep2 ([1]; P. falciparum, 120 h, parasite screen 2 μg/mL, % growth, replicate 2): 133.22% | Tg_72h_%Growth_Rep1 ([2]; T. gondii, parasite screen 2 μg/mL, % growth, replicate 1): 140.42% | Tg_72h_%Growth_Rep2 ([2]; T. gondii, parasite screen 2 μg/mL, % growth, replicate 2): 93.56% | Pf_72h_%Growth_Rep1 ([3]; P. falciparum, 72 h, parasite screen 2 μg/mL, % growth, replicate 1): 81.43% | Pf_72h_%Growth_Rep2 ([3]; P. falciparum, 72 h, parasite screen 2 μg/mL, % growth, replicate 2): 88.63%
